Columns and labels:
[1] = target: T1, Monocarboxylate transporter 1 (Rattus norvegicus) (UniProt P53987); experiment: (§1) TP_TRANSPORTER: inhibition of pyruvate uptake in Xenopus laevis oocytes; type: functional, cell-based; design: concentration or dose not given beside the values; conditions: Oocyte
T1 sequence (whole entry): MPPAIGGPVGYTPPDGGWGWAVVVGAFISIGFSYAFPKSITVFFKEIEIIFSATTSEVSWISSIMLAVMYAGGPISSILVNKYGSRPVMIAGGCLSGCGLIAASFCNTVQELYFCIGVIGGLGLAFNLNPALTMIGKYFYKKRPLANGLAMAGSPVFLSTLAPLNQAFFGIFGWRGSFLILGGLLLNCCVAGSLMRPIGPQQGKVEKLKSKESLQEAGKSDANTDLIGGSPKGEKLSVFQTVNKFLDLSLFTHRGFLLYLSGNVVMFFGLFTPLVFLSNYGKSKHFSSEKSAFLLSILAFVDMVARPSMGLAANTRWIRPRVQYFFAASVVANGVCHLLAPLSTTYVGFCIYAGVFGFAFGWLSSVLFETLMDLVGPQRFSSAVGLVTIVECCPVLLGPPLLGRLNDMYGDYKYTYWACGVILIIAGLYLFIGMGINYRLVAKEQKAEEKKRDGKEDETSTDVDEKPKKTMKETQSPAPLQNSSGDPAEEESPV

[2] = target: T2, Monocarboxylate transporter 2 (Homo sapiens) (UniProt O60669); experiment: as §1; type: functional, cell-based; design: concentration or dose not given beside the values; conditions: Oocyte
T2 sequence (whole entry): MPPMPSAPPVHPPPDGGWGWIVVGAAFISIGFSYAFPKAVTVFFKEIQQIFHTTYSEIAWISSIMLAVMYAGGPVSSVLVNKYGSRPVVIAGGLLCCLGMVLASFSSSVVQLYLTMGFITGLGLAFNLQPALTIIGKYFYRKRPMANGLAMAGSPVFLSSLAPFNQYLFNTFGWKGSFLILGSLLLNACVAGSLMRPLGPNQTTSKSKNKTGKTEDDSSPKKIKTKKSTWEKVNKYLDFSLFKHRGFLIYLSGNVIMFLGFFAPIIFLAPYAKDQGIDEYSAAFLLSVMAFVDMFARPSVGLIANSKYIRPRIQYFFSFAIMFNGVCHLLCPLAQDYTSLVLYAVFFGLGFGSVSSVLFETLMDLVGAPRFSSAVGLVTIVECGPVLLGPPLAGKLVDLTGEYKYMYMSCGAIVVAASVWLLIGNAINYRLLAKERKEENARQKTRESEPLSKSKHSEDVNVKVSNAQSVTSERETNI

Row | SMILES | Activity [1] | Activity [2]
1 | CC(O)CC(=O)O (racemic) | 20% | 30%
2 | O=C(O)/C=C/c1cccc(O)c1 | 20% | 30%
3 | O=C(O)CCCO | 40% | 10%
4 | C[C@@H](O)C(=O)O | 30% | 10%
5 | CC(O)C(=O)[O-].[Na+] (stereo unspecified) | 0% | 0%
6 | O=CC[C@@H](O)[C@H](O)[C@H](O)CO | is not an inhibitor [-] | is not an inhibitor [-]
7 | CCOC(=O)/C=C/c1ccc(O)cc1 | 0% | 65%
8 | CCC(O)C(=O)O (racemic) | 40% | 10%

Reference: ChEMBL document CHEMBL2073879, “Human monocarboxylate transporter 2 (MCT2) is a high affinity pyruvate transporter” (J Biol Chem, 1998)
